Here are results for 16 molecules from patent publication US20250320213A1, “Nitrogen-Containing Heterocyclic Compounds” (Pfizer Inc., priority 2024, published 2025).

The target of the assay is T1, STAT6 (Homo sapiens, UniProt P42226).
T1 construct: stably transfected HaCaT keratinocyte cell line, which expresses NanoLuc luciferase reporter gene under the transcriptional control of the STAT6 responsive promoter; endogenous in cells; host or cells: HaCaT keratinocyte reporter cell line (stably transfected with a NanoLuc reporter)
T1 sequence (P42226 1-847): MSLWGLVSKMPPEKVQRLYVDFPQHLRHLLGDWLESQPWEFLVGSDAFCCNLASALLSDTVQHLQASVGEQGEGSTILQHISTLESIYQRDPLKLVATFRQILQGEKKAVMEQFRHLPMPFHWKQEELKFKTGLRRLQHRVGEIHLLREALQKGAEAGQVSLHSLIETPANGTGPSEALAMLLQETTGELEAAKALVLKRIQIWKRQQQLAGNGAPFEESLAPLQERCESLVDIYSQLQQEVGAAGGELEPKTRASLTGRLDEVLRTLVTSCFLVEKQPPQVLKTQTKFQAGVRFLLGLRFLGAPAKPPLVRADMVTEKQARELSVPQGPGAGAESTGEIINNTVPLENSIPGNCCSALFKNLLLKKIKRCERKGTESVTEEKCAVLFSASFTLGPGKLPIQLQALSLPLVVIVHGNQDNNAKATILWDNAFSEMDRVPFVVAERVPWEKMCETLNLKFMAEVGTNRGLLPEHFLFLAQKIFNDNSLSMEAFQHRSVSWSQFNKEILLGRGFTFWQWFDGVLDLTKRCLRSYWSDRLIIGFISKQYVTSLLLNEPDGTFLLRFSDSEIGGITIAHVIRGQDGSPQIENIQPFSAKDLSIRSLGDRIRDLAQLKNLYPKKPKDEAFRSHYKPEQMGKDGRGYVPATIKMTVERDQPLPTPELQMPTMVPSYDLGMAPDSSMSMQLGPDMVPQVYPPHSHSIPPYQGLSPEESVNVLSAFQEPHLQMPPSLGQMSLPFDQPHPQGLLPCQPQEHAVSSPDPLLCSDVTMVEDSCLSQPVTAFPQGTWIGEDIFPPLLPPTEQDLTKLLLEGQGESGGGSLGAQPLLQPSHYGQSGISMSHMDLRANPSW
The assay is described as follows: STAT6 Reporter Luciferase Assay (IL-13 stimulated HaCaT keratinocyte NanoLuc reporter cells). As to conditions: IL-13 stimulated HaCaT STAT6 NanoLuc reporter cells; read-out: Reporter EC50. The class given is cell-based. As to the method: Pharmacological measurements of STAT6 transcriptional activity through the IL-13-IL-13 receptor/IL-4 receptor pathway were made with a stably transfected HaCaT keratinocyte cell line, which expresses NanoLuc luciferase reporter gene under the transcriptional control of the STAT6 responsive promoter for IL-13Ra2. The readout of the STAT6 activity utilized Promega Nano-Glo Luciferase assay kit.
The reporter cells were cultured in a growth media comprised of DMEM High Glucose, no calcium and no glutamine, 10% heat inactivated fetal bovine serum (HI FBS), 1% 100× Glutamax, and 100 U/mL Penicillin-Streptomycin (units of penicillin in 1 mL of streptomycin). Seven thousand cells were plated in 25 microliter (μL) per well in a 384-well, white bottom, tissue culture plate. Cells were cultured overnight at 37° C. The next day, test compounds (solubilized and serially diluted in DMSO, in an 11 point, 4-fold dilution series in duplicate) were spotted, 60 nanoliters (nL) per well, into a 384 well v-bottom polypropylene plate. Thirty μL per well of 37° C. dosing media (Dulbecco's modified eagle medium (DMEM) High Glucose, no calcium and no glutamine with 2% HI FBS) was added to the compound plate. Growth media was removed from the cell plate, and the cells were washed with DPBS. Twenty μL per well of compounds diluted in dosing media were transferred from the compound plate to the cell plate and the compounds were further diluted with an additional 15 μL of dosing media in the cell plate: the cell plate was incubated for two hours at 37° C. After two hours, STAT6 activity was stimulated with the addition of 5 μL per well of IL-13 (R&D Systems) in dosing media with a final concentration of 0.12 nM IL13. Cells were incubated at 37° C. for 4 hours to allow for reporter gene expression, then all media was removed from the plate. The cell plates were treated with assay buffer and Luciferase substrate from Nano-Glo Luciferase Assay Kit for 15 min and then measured for luminescence on an EnVision 2105 multilabel reader (PerkinElmer).
For orientation: EC50 means the concentration giving half of the maximal effect. For `CC(C)n1nc(C(=O)NCc2ccc(NC(=O)N3CCC[C@@H](N(C)C)C3)cc2)c2c1[C@@H](C)CN(c1ccc(C(=O)N(C)C)cc1)C2` [Example 754, (S)-N-(4-((R)-3-(dimethylamino)piperidine-1-carboxamido)benzyl)-5-(4-(dimethylcarbamoyl)phenyl)-1-isopropyl-7-methyl-4,5,6,7-tetrahydro-1H-pyrazolo[4,3-c]pyridine-3-carboxamide], the EC50 was 2 nM.
As for `Cc1nc2n(c1C)CCN(C(=O)c1ccc(N3CCc4c(c(C(=O)NCc5ccc(NC(=O)N(C)C)cc5)nn4C(C)C)C3)nc1)C2` [Example 414, 5-(5-(2,3-dimethyl-5,6,7,8-tetrahydroimidazo[1,2-a]pyrazine-7-carbonyl)pyridin-2-yl)-N-(4-(3,3-dimethylureido)benzyl)-1-isopropyl-4,5,6,7-tetrahydro-1H-pyrazolo[4,3-c]pyridine-3-carboxamide], the figure is 66 nM; as for `CC(C)n1nc(C(=O)NCc2ccc(NC(=O)N(C)C)cc2)c2c1CCN(c1ccc(C(=O)N3Cc4ccncc4C3)cn1)C2` [Example 378, 5-(5-(2,3-dihydro-1H-pyrrolo[3,4-c]pyridine-2-carbonyl)pyridin-2-yl)-N-(4-(3,3-dimethylureido)benzyl)-1-isopropyl-4,5,6,7-tetrahydro-1H-pyrazolo[4,3-c]pyridine-3-carboxamide], 15 nM.
Take `CCS(=O)(=O)N1CCN(C(=O)c2ccc(N3CCc4c(c(C(=O)NCc5ccc(NC(=O)N(C)C)cc5)nn4C(C)C)C3)nc2)CC1` [Example 563, N-(4-(3,3-dimethylureido)benzyl)-5-(5-(4-(ethylsulfonyl)piperazine-1-carbonyl)pyridin-2-yl)-1-isopropyl-4,5,6,7-tetrahydro-1H-pyrazolo[4,3-c]pyridine-3-carboxamide]: the EC50 was 202 nM.
As for `CCOC1CN(C(=O)c2ccc(N3CCc4c(c(C(=O)NCc5ccc(NC(=O)N(C)C)cc5)nn4C(C)C)C3)nc2)C1` [Example 242, N-(4-(3,3-dimethylureido)benzyl)-5-(5-(3-ethoxyazetidine-1-carbonyl)pyridin-2-yl)-1-isopropyl-4,5,6,7-tetrahydro-1H-pyrazolo[4,3-c]pyridine-3-carboxamide], the figure is 352 nM; as for `CC(C)n1nc(C(=O)NCc2ccc(NC(=O)N(C)C)cc2)c2c1CCN(c1ccc(C(=O)N3CC4(CC(=O)N(C)C4)C3)cn1)C2` [Example 300, N-(4-(3,3-dimethylureido)benzyl)-1-isopropyl-5-(5-(6-methyl-7-oxo-2,6-diazaspiro[3.4]octane-2-carbonyl)pyridin-2-yl)-4,5,6,7-tetrahydro-1H-pyrazolo[4,3-c]pyridine-3-carboxamide], 1420 nM; as for `CC(C)n1nc(C(=O)NCc2ccc(NC(=O)N3CCC4(CC3)CCN4C)cc2)c2c1[C@@H](C)CN(c1ccc(C(=O)N(C)C)cc1)C2` [Example 740, (S)-5-(4-(dimethylcarbamoyl)phenyl)-1-isopropyl-7-methyl-N-(4-(1-methyl-1,7-diazaspiro[3.5]nonane-7-carboxamido)benzyl)-4,5,6,7-tetrahydro-1H-pyrazolo[4,3-c]pyridine-3-carboxamide], 2 nM.
As for `COC[C@H]1CN(C(=O)Nc2ccc(CNC(=O)c3nn(C(C)C)c4c3CN(c3ccc(C(=O)N(C)C)cc3)C[C@@H]4C)cc2F)CCN1` [Example 689, (S)-5-(4-(dimethylcarbamoyl)phenyl)-N-(3-fluoro-4-((R)-3-(methoxymethyl)piperazine-1-carboxamido)benzyl)-1-isopropyl-7-methyl-4,5,6,7-tetrahydro-1H-pyrazolo[4,3-c]pyridine-3-carboxamide], the figure is 1 nM.
Then `CC(C)n1nc(C(=O)NCc2ccc(NC(=O)N(C)C)cc2)c2c1CCN(c1ccc(C(=O)N3CCn4cncc4C3)cn1)C2` [Example 438, N-(4-(3,3-dimethylureido)benzyl)-1-isopropyl-5-(5-(5,6,7,8-tetrahydroimidazo[1,5-a]pyrazine-7-carbonyl)pyridin-2-yl)-4,5,6,7-tetrahydro-1H-pyrazolo[4,3-c]pyridine-3-carboxamide], with 105 nM; and `CO[C@@H]1CCN(C(=O)c2ccc(N3CCc4c(c(C(=O)NCc5ccc(NC(=O)N(C)C)cc5)nn4C(C)C)C3)nc2)C1` [Example 216, (R)-N-(4-(3,3-dimethylureido)benzyl)-1-isopropyl-5-(5-(3-methoxypyrrolidine-1-carbonyl)pyridin-2-yl)-4,5,6,7-tetrahydro-1H-pyrazolo[4,3-c]pyridine-3-carboxamide], with 546 nM.
In the case of `CC(C)n1nc(C(=O)NCc2ccc(NC(=O)N(C)C)cc2)c2c1CCN(c1ccc(C(=O)N3C[C@@H]4OCCO[C@@H]4C3)cn1)C2` [Example 239, N-(4-(3,3-dimethylureido)benzyl)-5-(5-((4aR,7aS)-hexahydro-5H-[1,4]dioxino[2,3-c]pyrrole-6-carbonyl)pyridin-2-yl)-1-isopropyl-4,5,6,7-tetrahydro-1H-pyrazolo[4,3-c]pyridine-3-carboxamide], the EC50 turned out to be 236 nM.
`CC(C)n1nc(C(=O)NCc2ccc(NC(=O)N3CCC[C@H](N(C)C)C3)cc2)c2c1[C@@H](C)CN(c1ccc(C(=O)N(C)C)cc1)C2` [Example 755, (S)-N-(4-((S)-3-(dimethylamino)piperidine-1-carboxamido)benzyl)-5-(4-(dimethylcarbamoyl)phenyl)-1-isopropyl-7-methyl-4,5,6,7-tetrahydro-1H-pyrazolo[4,3-c]pyridine-3-carboxamide]: the EC50 came out at 2 nM.
`Cc1cc2c(cn1)CN(C(=O)c1ccc(N3CCc4c(c(C(=O)NCc5ccc(NC(=O)N(C)C)cc5)nn4C(C)C)C3)nc1)C2` [Example 440, N-(4-(3,3-dimethylureido)benzyl)-1-isopropyl-5-(5-(6-methyl-2,3-dihydro-1H-pyrrolo[3,4-c]pyridine-2-carbonyl)pyridin-2-yl)-4,5,6,7-tetrahydro-1H-pyrazolo[4,3-c]pyridine-3-carboxamide]: the EC50 is 16 nM.
As for `COCCN1CCC(CN(C)C(=O)c2ccc(N3Cc4c(C(=O)NCc5ccc(NC(=O)N(C)C)cc5)nn(C(C)C)c4[C@@H](C)C3)cc2)CC1` [Example 565, (S)-N-(4-(3,3-dimethylureido)benzyl)-1-isopropyl-5-(4-(((1-(2-methoxyethyl)piperidin-4-yl)methyl)(methyl)carbamoyl)phenyl)-7-methyl-4,5,6,7-tetrahydro-1H-pyrazolo[4,3-c]pyridine-3-carboxamide], the figure is 5 nM; as for `CC(C)n1nc(C(=O)NCc2ccc(NC(=O)N(C)C)cc2)c2c1CCN(c1ccc(C(=O)N3CC(C)(O)C3)cn1)C2` [Example 244, N-(4-(3,3-dimethylureido)benzyl)-5-(5-(3-hydroxy-3-methylazetidine-1-carbonyl)pyridin-2-yl)-1-isopropyl-4,5,6,7-tetrahydro-1H-pyrazolo[4,3-c]pyridine-3-carboxamide], 196 nM; as for `CC(C)n1nc(C(=O)NCc2ccc(NC(=O)N(C)C)cc2)c2c1CCN(c1ccc(C(=O)N3CCc4nocc4C3)cn1)C2` [Example 383, N-(4-(3,3-dimethylureido)benzyl)-1-isopropyl-5-(5-(4,5,6,7-tetrahydroisoxazolo[4,3-c]pyridine-5-carbonyl)pyridin-2-yl)-4,5,6,7-tetrahydro-1H-pyrazolo[4,3-c]pyridine-3-carboxamide], 49 nM.
